Assay results taken from US20240117357A1, “REGULATION OF METABOLISM AND OBESITY BY MITOCHONDRIAL MUL1 E3 UBIQUITIN LIGASE” (University of Central Florida Research Foundation, Inc., priority 2022, published 2024).

How the values were obtained:
Assay type in all cases: cell-based, human
[1] = test system: HEK293 MUL1(−/−) cells; test: Glycolytic Stress Test (ECAR, Seahorse XFe24); details: 2.5 μM perifosine or 500 nM chetomin for 4 hours
Method: (§1) To monitor glycolysis in the cell lines, the Glycolysis Stress Test was performed using a XFe24 Extracellular Flux Analyzer (Agilent Technologies). HEK293 WT, MUL1(−/−) and Akt2(−/−) cells were seeded in triplicates on poly-lysine D-coated XFe24 microplates at a density of 60,000 cells per well in assay medium (XF DMEM pH 7.4 containing 2 mM glutamine and 1 mM sodium pyruvate without glucose) for one hour in a CO2-free incubator. Extracellular acidification rate (ECAR) was measured under basal conditions and again after sequential injections of glucose (10 mM) in port A, ATP synthase inhibitor oligomycin (1.5 μM) in port B, and the glycolysis inhibitor 2-deoxyglucose (2-DG) (300 mM) in port C. Basal glycolysis was assessed by recording three measurements, following the addition of each compound by a 3-2-3 mix/measurement cycle. Glycolysis is the ECAR after the addition of glucose. Glycolytic capacity is the increase in ECAR after the injection of oligomycin following glucose. Glycolytic reserve is the difference between glycolytic capacity and glycolysis. Data analysis was performed using Report Generators software for Glycolysis Stress Test (Agilent Technologies).

[2] = test system: HEK293 MUL1(−/−) cells; test: Mitochondrial Stress Test (OCR, Seahorse XFe24); details: for oxygen consumption rate (OCR): HEK293 MUL1(−/−) cells, 2.5 μM perifosine or 500 nM chetomin for 4 hours; for mitochondrial respiration: at the concentration used (2.5 μM perifosine, 500 nM chetomin, 4 hours)
Method: Mitochondrial stress assay was performed using an XFe24 Extracellular Flux Analyzer (Agilent Technologies) following the workflow provided by the manufacturer's instructions. Briefly, for Oxygen Consumption Rate (OCR) measurements, HEK293 WT and MUL1(−/−) cells were seeded in triplicates on poly-lysine D-coated XF24 microplates at a density of approximately 60,000 cells per well in assay medium (XF DMEM medium pH 7.4 supplemented with 10 mM glucose, 2 mM glutamine, and 1 mM pyruvate), followed by incubation at 37° C. in CO2-free incubator for 60 minutes. Three baseline measurements were recorded before the injection of the following compounds: 1.5 μM of oligomycin in port A, 1.0 μM of FCCP in port B and 0.5 μM rotenone/antimycin in port C. Data analysis was performed using Cell Mito Stress Test Report Generators software (Agilent Technologies).

[3] = test system: HIF-1α; test: Western blot of HIF-1α target protein GLUT1; details: 500 nM chetomin for 4 hours
Method: (§2) Control (untreated) as well as cells treated with perifosine, chetomin or DMOG were lysed using a Triton X-100 based lysis buffer (1% Triton X-100, 10% glycerol, 150 mM NaCl, 20 mM Tris (pH 7.5), 2 mM EDTA) in the presence of protease inhibitors (Thermo Fisher Scientific). Approximately 40 μg of whole cell extract was resuspended in SDS sample buffer, boiled for 4 minutes, and analyzed by SDS-PAGE (12% or 15% gels), then transferred onto PVDF membranes (Genesee) using a semi-dry cell transfer blot (Bio-Rad). Nonfat dry milk (4%) or 5% BSA (for Akt2 and phospho-specific antibodies) in TBST buffer (25 mM Tris-HCl, pH 8.0, 125 mM NaCl, 0.1% Tween 20) were used to block nonspecific binding of the membrane. The membranes were incubated with the indicated primary antibodies: HIF-1α (Bioss Antibodies, 1:2,000), AKT (pan), Akt1, Akt2, Akt3, phospho-Akt-T308, phospho-GSK-3β-S9, ULK1 (Cell Signaling Technology 1:2,000), GLUT1, (ABclonal 1:2,000), MFN2, and β-actin (Santa Cruz Biotechnology, 1:3,000). MUL1 and UBXN7 rabbit polyclonal antibodies were homegrown and used at 1:5,000 dilution. Secondary peroxidase-conjugated goat anti-rabbit or goat anti-mouse antibodies (Jackson ImmunoResearch) were used at 1:10,000 dilution. The membrane was visualized by enhanced chemiluminescence (ECL) (Thermo Fisher Scientific).

[4] = test system: HEK293 Akt2(−/−) cells; test: 13C-NMR isotopomer metabolic flux analysis ([U-13C]glucose, tcaCALC)
Method: For NMR analysis, approximately 20×10^6 HEK293 WT, MUL1(−/−), or Akt2(−/−) cells were grown to confluency following treatment with perifosine, or chetomin inhibitors as well as with the HIF-1α activator DMOG and DMSO was used as vehicle control. Freshly prepared [U-^13C]glucose tracer containing medium (glucose free DMEM with 10% dialyzed FBS and 15 mM [U-^13C]glucose) was added to the cells for 6 hours at 37° C. Cells were scraped from the plates, washed twice with cold PBS, and immediately snap frozen in liquid nitrogen (161).
Cell pellets were bead-homogenized in 1 ml acetonitrile:isopropanol:water (3:3:2, v:v:v), centrifuged at 10,000×g for 15 min at 4° C. and the supernatant removed and dried in a speedvac. Dried cell extracts of each sample were re-suspended in 0.5 ml of acetonitrile: water (1:1, v:v) solution, vortexed, and centrifuged for 15 min at 10,000×g at 4° C. The supernatant was transferred to a new tube and dried in a speedvac The dried extract of each cell pellet was re-suspended in phosphate buffer (prepared in Deuterium oxide (D2O)) for NMR analysis. […]
^1H-NMR spectra were collected on an 800 MHz NMR, equipped with a 5 mm TXI CryoProbe and Avance III console (Bruker Biospin), using TopSpin software (version 3.6.3). […] The conventional ^1H-decoupled ^13C-NMR spectra were acquired for each sample at 150.13 MHz, using a ^13C-optimized 1.5 mm high temperature superconducting (HTS) probe on an Agilent NMR system with the magnetic field strength of 14 tesla. ^13C-NMR spectra were recorded using an acquisition time (AQ) of 1.5 sec, relaxation delay (dl) of 1.5 sec, flip angle of 45°, acquired size (TD) of 54 k with the spectral width of 250 ppm (Ramaswamy et al., 2013). […]
The positional ^13C-isotopomer distribution pattern of glutamate was determined by ^13C-NMR. ^13C-NMR resonances of various isotopomers of glutamate are identified from the ^13C-^13C J-coupling constants and quantified by line fitting to the glutamate resonances at C2, C3, C4, and C5 positions. […]

[5] = test system: HEK293 Akt2(−/−) cells; test: Glycolytic Stress Test (ECAR, Seahorse XFe24); details: DMOG 100 μM for 4 hours
Method: as §1

[6] = test system: HEK293 WT cells; test: Glycolytic Stress Test (ECAR, Seahorse XFe24); details: DMOG 100 μM for 4 hours
Method: as §1

[7] = test system: Akt2; test: Western blot of Akt2 target P-GSK-3β S9; details: 2.5 μM perifosine for 4 hours
Method: as §2

Akt2 kinase activity (P-GSK-3β S9) [7] | SMILES | ECAR and glycolysis (glycolytic function) [1] | oxygen consumption rate (OCR) [2] | mitochondrial respiration [2] | expression of GLUT1 [3] | YPC flux ([4]; Akt2(−/−)+DMOG cells compared with HEK293 WT and MUL1(−/−) cells) | PK flux ([4]; Akt2(−/−)+DMOG cells compared with HEK293 WT cells) | PK, YPC, and YS fluxes ([4]; Akt2(−/−)+DMOG vs Akt2(−/−) cells, relative to citrate synthase flux of 1) | glycolysis and glycolytic capacity [5] | glycolysis and glycolytic capacity [6]
 | CN1C(=O)[C@]2(Cc3cn([C@]45C[C@@]67SS[C@@](CO)(C(=O)N6[C@H]4Nc4ccccc45)N(C)C7=O)c4ccccc34)SS[C@@]1(CO)C(=O)N2C [chetomin] | very potent inhibitor of the mitochondrial glycolytic function | further reduced | potent inhibitors of mitochondrial respiration | significantly reduces |  |  |  |  | 
 | COC(=O)CNC(=O)C(=O)OC [DMOG, dimethyloxalyglycine] |  |  |  |  | elevated above WT, but fell short of reaching MUL1(−/−) levels | partially restored with DMOG, but did not reach the WT levels | significantly increased | small but significant increase | unremarkable
inhibits | CCCCCCCCCCCCCCCCCCOP(=O)([O-])OC1CC[N+](C)(C)CC1 [perifosine] | reduced ECAR and glycolysis to a level lower than the one present in HEK293 WT cells | further reduced | potent inhibitors of mitochondrial respiration |  |  |  |  |  | 
